Results reported in patent US8802597B2, “Herbicidal pyrimidines” (E I du Pont de Nemours and Company, priority 2003, dated 2014).
Like-named read-outs stand apart in the source and are kept apart here.

Columns and labels:
Type in all cases: in vivo
[1] = test system: winter barley (Hordeum vulgare); assay: Test C postemergence; settings: for Plant response rating, Barley: scale 0 to 100
Procedure, shortened: (§1)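 Percent control is a visual rating (0 none, 100 complete) taken against untreated plants after 12 to 14 days of greenhouse growth. Applications were made preemergence to seeded pots and postemergence to plants at the 1- to 4-leaf stage, in a non-phytotoxic surfactant-containing solvent.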

[2] = test system: blackgrass (Alopecurus myosuroides); assay: Test C postemergence; settings: for Plant response rating, Blackgrass: scale 0 to 100
Procedure, shortened: as §1

[3] = test system: downy brome (Bromus tectorum); assay: Test C postemergence; settings: for Plant response rating, Bromegrass, Downy: scale 0 to 100
Procedure, shortened: as §1

[4] = test system: wheat (Triticum aestivum); assay: Test C postemergence
Procedure, shortened: as §1

[5] = test system: Italian ryegrass (Lolium multiflorum); assay: Test C postemergence
Procedure, shortened: as §1

[6] = test system: windgrass (Apera spica-venti); assay: Test C postemergence
Procedure, shortened: as §1

[7] = test system: wild oat (Avena fatua); assay: Test C postemergence
Procedure, shortened: as §1

[8] = test system: green foxtail (Setaria viridis); assay: Test C postemergence
Procedure, shortened: as §1

[9] = test system: canarygrass (Phalaris minor); assay: Test C postemergence; settings: for Plant response rating, Canarygrass: scale 0 to 100
Procedure, shortened: as §1

[10] = test system: Surinam grass (Brachiaria decumbens); assay: Test C pre/postemergence; settings: Urochloa decumbens; for pest or weed control at 125 g/ha: 125 g ai/ha; for pest or weed control at 31 g/ha: 31 g ai/ha; for pest or weed control at 62 g/ha: 62 g ai/ha; for pest or weed control at 250 g/ha: 250 g ai/ha
Procedure, shortened: as §1

[11] = test system: corn (Zea mays); assay: Test C pre/postemergence; settings: Zea mays; for Corn plant response rating (crop injury, 0 = no effect, 100 = complete kill) at 31 g/ha: 31 g ai/ha; for Corn plant response rating (crop injury, 0 = no effect, 100 = complete kill) at 62 g/ha: 62 g ai/ha; for Corn plant response rating (crop injury, 0 = no effect, 100 = complete kill) at 125 g/ha: 125 g ai/ha; for Corn plant response rating (crop injury, 0 = no effect, 100 = complete kill) at 250 g/ha: 250 g ai/ha
Procedure, shortened: as §1

[12] = test system: goosegrass (Eleusine indica); assay: Test C pre/postemergence; settings: Eleusine indica; for pest or weed control at 31 g/ha: 31 g ai/ha; for pest or weed control at 62 g/ha: 62 g ai/ha; for pest or weed control at 125 g/ha: 125 g ai/ha; for pest or weed control at 250 g/ha: 250 g ai/ha
Procedure, shortened: as §1

[13] = post-emergence, Postemergence, scale 0 to 100 (0 no effect, 100 complete control), read-out: Surinam Grass plant response rating
[14] = pre-emergence, Preemergence, scale 0 to 100, 0 no effect, 100 complete control, read-out: Plant response rating, Surinam Grass
[15] = pre-emergence, Preemergence, scale 0 to 100, read-out: Plant response rating, Surinam Grass
[16] = post-emergence, Postemergence, scale 0 to 100 (0 no effect, 100 complete control), read-out: Corn plant response rating
[17] = pre-emergence, Preemergence, scale 0 to 100, 0 no effect, 100 complete control, read-out: Plant response rating, Corn
[18] = post-emergence, Postemergence, scale 0 to 100 (0 no effect, 100 complete control), read-out: Goosegrass plant response rating
[19] = pre-emergence, Preemergence, scale 0 to 100, 0 no effect, 100 complete control, read-out: Plant response rating, Goosegrass
[20] = pre-emergence, Preemergence, scale 0 to 100, read-out: Plant response rating, Goosegrass

## COC(=O)c1nc(C(C)C)nc(N)c1Br [Compound 3]
[1]; 31 g ai/ha
  Plant response rating (scale of 0 to 100), Barley: 0
[1]; 125 g ai/ha
  Plant response rating, Barley: 0
[1]; 250 g ai/ha
  Plant response rating, Barley: 30
[1]; Hordeum vulgare, post-emergence, 62 g ai/ha, scale 0 to 100 (0 no effect, 100 complete control), read-out: Barley plant response rating
  plant injury at 62 g/ha: 0%
[2]; 31 g ai/ha
  Plant response rating (scale of 0 to 100), Blackgrass: 0
[2]; 125 g ai/ha
  Plant response rating, Blackgrass: 0
[2]; 250 g ai/ha
  Plant response rating, Blackgrass: 0
[2]; Alopecurus myosuroides, post-emergence, 62 g ai/ha, scale 0 to 100 (0 no effect, 100 complete control), read-out: Blackgrass plant response rating
  pest or weed control at 62 g/ha: 0%
[3]; 31 g ai/ha
  Plant response rating (scale of 0 to 100), Bromegrass, Downy: 20
[3]; 125 g ai/ha
  Plant response rating, Bromegrass, Downy: 20
[3]; 250 g ai/ha
  Plant response rating, Bromegrass, Downy: 20
[3]; Bromus tectorum, post-emergence, 62 g ai/ha, scale 0 to 100 (0 no effect, 100 complete control), read-out: Bromegrass, Downy plant response rating
  pest or weed control at 62 g/ha: 20%
[4]; 31 g ai/ha
  Plant response rating (scale of 0 to 100), Wheat: 0
[4]; 250 g ai/ha, scale 0 to 100
  Plant response rating, Wheat: 10
[4]; Triticum aestivum, post-emergence, 62 g ai/ha, scale 0 to 100 (0 no effect, 100 complete control), read-out: Wheat plant response rating
  plant injury at 62 g/ha: 0%
[4]; Triticum aestivum, post-emergence, 125 g ai/ha, scale 0 to 100 (0 no effect, 100 complete control), read-out: Wheat plant response rating
  plant injury at 125 g/ha: 0%
[5]; 31 g ai/ha
  Plant response rating (scale of 0 to 100), Ryegrass, Italian: 35
[5]; 250 g ai/ha, scale 0 to 100
  Plant response rating, Ryegrass, Italian: 35
[5]; Lolium multiflorum, post-emergence, 62 g ai/ha, scale 0 to 100 (0 no effect, 100 complete control), read-out: Ryegrass, Italian plant response rating
  pest or weed control at 62 g/ha: 35%
[5]; Lolium multiflorum, post-emergence, 125 g ai/ha, scale 0 to 100 (0 no effect, 100 complete control), read-out: Ryegrass, Italian plant response rating
  pest or weed control at 125 g/ha: 35%
[6]; 31 g ai/ha
  Plant response rating (scale of 0 to 100), Windgrass: 10
[6]; 250 g ai/ha, scale 0 to 100
  Plant response rating, Windgrass: 30
[6]; Apera spica-venti, post-emergence, 62 g ai/ha, scale 0 to 100 (0 no effect, 100 complete control), read-out: Windgrass plant response rating
  pest or weed control at 62 g/ha: 30%
[6]; Apera spica-venti, post-emergence, 125 g ai/ha, scale 0 to 100 (0 no effect, 100 complete control), read-out: Windgrass plant response rating
  pest or weed control at 125 g/ha: 30%
[7]; 31 g ai/ha
  Plant response rating (scale of 0 to 100), Oat, Wild: 30
[7]; 250 g ai/ha, scale 0 to 100
  Plant response rating, Oat, Wild: 40
[7]; Avena fatua, post-emergence, 62 g ai/ha, scale 0 to 100 (0 no effect, 100 complete control), read-out: Oat, Wild plant response rating
  pest or weed control at 62 g/ha: 30%
[7]; Avena fatua, post-emergence, 125 g ai/ha, scale 0 to 100 (0 no effect, 100 complete control), read-out: Oat, Wild plant response rating
  pest or weed control at 125 g/ha: 40%
[8]; 31 g ai/ha
  Plant response rating (scale of 0 to 100), Foxtail, Green: 20
[8]; 250 g ai/ha, scale 0 to 100
  Plant response rating, Foxtail, Green: 35
[8]; Setaria viridis, post-emergence, 62 g ai/ha, scale 0 to 100 (0 no effect, 100 complete control), read-out: Foxtail, Green plant response rating
  pest or weed control at 62 g/ha: 30%
[8]; Setaria viridis, post-emergence, 125 g ai/ha, scale 0 to 100 (0 no effect, 100 complete control), read-out: Foxtail, Green plant response rating
  pest or weed control at 125 g/ha: 35%
[9]; 31 g ai/ha
  Plant response rating (scale of 0 to 100), Canarygrass: 10
[9]; 125 g ai/ha
  Plant response rating, Canarygrass: 10
[9]; 250 g ai/ha
  Plant response rating, Canarygrass: 10
[9]; Phalaris minor, post-emergence, 62 g ai/ha, scale 0 to 100 (0 no effect, 100 complete control), read-out: Canarygrass plant response rating
  pest or weed control at 62 g/ha: 10%
[10]; [13]
  pest or weed control at 125 g/ha: 0%
  pest or weed control at 62 g/ha: 0%
[10]; post-emergence, Postemergence, read-out: Plant response rating (scale of 0 to 100), Surinam Grass
  pest or weed control at 31 g/ha: 0%
[10]; post-emergence, Postemergence, scale 0 to 100, read-out: Plant response rating, Surinam Grass
  pest or weed control at 250 g/ha: 0%
[10]; [14]
  pest or weed control at 31 g/ha: 0%
  pest or weed control at 62 g/ha: 0%
[10]; [15]
  pest or weed control at 125 g/ha: 0%
  pest or weed control at 250 g/ha: 0%
[11]; post-emergence, Postemergence, read-out: Plant response rating (scale of 0 to 100), Corn
  Corn plant response rating (crop injury, 0 = no effect, 100 = complete kill) at 31 g/ha: 0%
[11]; [16]
  Corn plant response rating (crop injury, 0 = no effect, 100 = complete kill) at 62 g/ha: 0%
  Corn plant response rating (crop injury, 0 = no effect, 100 = complete kill) at 125 g/ha: 0%
[11]; post-emergence, Postemergence, scale 0 to 100
  Corn plant response rating (crop injury, 0 = no effect, 100 = complete kill) at 250 g/ha: 0%
[11]; [17]
  Corn plant response rating (crop injury, 0 = no effect, 100 = complete kill) at 31 g/ha: 0%
  Corn plant response rating (crop injury, 0 = no effect, 100 = complete kill) at 62 g/ha: 0%
[11]; pre-emergence, Preemergence, scale 0 to 100, read-out: Plant response rating, Corn
  Corn plant response rating (crop injury, 0 = no effect, 100 = complete kill) at 125 g/ha: 0%
[11]; pre-emergence, Preemergence, scale 0 to 100
  Corn plant response rating (crop injury, 0 = no effect, 100 = complete kill) at 250 g/ha: 0%
[12]; post-emergence, Postemergence, read-out: Plant response rating (scale of 0 to 100), Goosegrass
  pest or weed control at 31 g/ha: 0%
[12]; [18]
  pest or weed control at 62 g/ha: 0%
  pest or weed control at 125 g/ha: 0%
[12]; post-emergence, Postemergence, scale 0 to 100, read-out: Plant response rating, Goosegrass
  pest or weed control at 250 g/ha: 0%
[12]; [19]
  pest or weed control at 31 g/ha: 0%
  pest or weed control at 62 g/ha: 0%
[12]; [20]
  pest or weed control at 125 g/ha: 0%
  pest or weed control at 250 g/ha: 0%
